Laboratory results taken from US20130143869A1, “USE OF A CATIONIC AMPHIPHILIC DRUG FOR THE PREPARATION OF A FORMULATION FOR THE REDUCTION OF SUBCUTANEOUS ADIPOSE TISSUE” (Merz Pharma GmbH & CO. KGaA, priority 2010, published 2013).

What was measured:
[1] = system: Human white adipocytes; assay: Apoptosis/necrosis detection, Annexin V-FITC/PI flow cytometry; assay type: cell-based
Description: The apoptotic program is characterized by certain morphologic features. Loss of plasma membrane asymmetry is a well established indicator for apoptotic cells. In apoptotic cells, the membrane phospholipid phosphatidylserine (PS) is translocated from the inner to the outer leaflet of the plasma membrane, thereby exposing PS to the external environment. In general, this PS translocation is preceded by caspase activation. Annexin V labelled with FITC is a Ca^2+ dependent phospholipid-binding protein with high affinity for PS and binds to cells with externalized PS. Cells stained with Annexin V*FITC are therefore considered in an early apoptotic stage.
Staining with Annexin V-FITC is typically used in conjunction with a vital dye such as propidium iodide (PI) to allow discrimination between early apoptotic and necrotic cells. Necrotic dying cells are PI positive only. Cells that are viable are Annexin V and PI negative; cells that entered apoptosis are Annexin V positive and PI negative and cells that are in post apoptotic and/or necrotic phase are both Annexin V and PI positive.
Human white adipocytes that had been differentiated in vitro from pre-adipocytes as describe above were used. Measurements were performed after 5 hrs to catch early apoptotic/necrotic events and after 24 hrs and 48 hrs for later stages. Naringenin at 500 μM (reported to induce apoptosis in adipocytes) was used as positive control and media plus solvent was used as negative control. Each compound was tested in three different concentrations. […] Two more concentrations, one below and one above the IC50 were added.
Flow cytometry was performed with a dual laser FC500. After completion of the staining procedure, tubes were grouped into a FC500 carousel for semi-automated data acquisition. Cells were first acquired in “Setup” mode to tune the parameters FS, SS, FL1 and FL2. After completion of the setup, baseline compensation was switched on and cells were acquired. Cells were acquired without life-gate but using FS threshold to exclude debris. All cells were acquired using individually corrected settings.
After completion of data acquisition, analysis was done using the CXP software. If necessary, software-based post acquisition compensation was performed to fine-correct for fluorescence overlap not adjusted for during the acquisition phase. Quadrant markers were set based on the negative controls.

[2] = Precipitation of test item in cytotoxicity assay media; assay type: physicochemical; settings: above 500 μM
Experimental: (§1) The test items 1 to 8 were prepared according to Table 1 to yield respective stock solutions. Said stock solutions were further diluted in assay media to obtain the double concentrated working solutions, which were subsequently diluted 1:2 in the final assay. […] Deoxycholate Na was selected as “reference compound”.

[3] = system: human adipocyte cells; assay: Membrane integrity: LDH release from human adipocytes (LDH assay); assay type: cell-based; settings: Example 1, 48 hrs, relative to Triton-x 100 maximal LDH release
Experimental: (§2) HWP were obtained in passage two and differentiated in vitro to mature adipocytes. Briefly, cells were initially cultured in preadipocyte growth medium at 37° C. and 5% CO2 to 70-80% confluency. Then, cells were seeded at 40,000 cells/ml into 96-well flat bottom tissue culture plates and incubated overnight to allow attachment. Differentiation was initiated by changing the medium to preadipopcyte differentiation medium for an additional 72 hrs. After differentiation was induced, the medium was replaced by adipocyte nutrition medium that was refreshed every 2-3 days over a period of 14 days until termination of differentiation. Differentiation status was checked via nile red staining of control cells.
(§3) For the cytotoxicity assays in this study pre-adipocytes were seeded at 40,000 cells/ml into a 96-well microtiter flat bottom plate. The test items were prepared in separate plates starting with the double concentrated maximal test concentration followed by a 1:2 serial dilution (Chloroquine and Fluoxetine 1:3) and then added to the cells. The test items were tested at 6 replicates/concentration. Each plate included negative controls (media plus solvent, 6 replicates), a drug interference control (all concentrations, duplicates), a background control (14 replicates), a positive (=cytotoxic) control (6 replicates doxorubicin, 1 μM final) and a positive control for maximal LDH-release (2 replicates, 2% Triton-x 100 final).
(§4) Relative cell viability was determined after 48 hrs exposure based on metabolic activity (i.e. resazurin conversion). Using a Victor^3 1420 Multilabel Counter, the resazurin conversion to the fluorescent resorufin by metabolically active cells was recorded at 560Ex/590Em. Membrane integrity was measured after 6 hrs and 48 hrs and the enzymatic activity of released LDH in the cell supernatant after 30 min of incubation at 492 nmabsorption/690 nmreference by a spectrophotometer. The volume withdrawn from the cultures for the LDH-assay was not replaced to keep cells in a less disturbed environment. The assay was conducted in a multiplexed format.
For the dose-response relationship, absolute absorption (OD treated wells−background) was plotted against the test item concentrations representing LDH leakage from the cells. For a better estimation of the test items' potential influencing the membrane integrity, relative, maximal LDH release in percent (see Table 2) was also calculated according to the following formula: […]
(§5) The effects on cytotoxicity in human adipocyte cells of a further 9 compounds were tested. The experimental set-up was identical to the one in example 1.

[4] = system: human adipocyte cells; assay: Cytotoxicity assay: metabolic activity (resazurin conversion) of human adipocytes; assay type: cell-based; settings: read-out: IC50 (metabolic activity after 48 hrs); Example 1, 48 hrs exposure, resazurin
Experimental: as §2, §1, §3, §4
In order to derive meaningful IC50 values from the primary data, the entire biological window of activity ranging from 0% to 100% viability should be covered and the resolution has to be sufficient. To improve data quality, the serial dilution factor used in previous experiments was reduced to a 1:2 and 1:3 dilution. […] IC50 (half maximal inhibitory concentration, calculated via Sigma Plot 10) values were determined for each test substance 1 to 8.
as §5

For `CC(=O)N1CCN(c2ccc(OCC3COC(Cn4ccnc4)(c4ccc(Cl)cc4Cl)O3)cc2)CC1` (centres unmarked) [Test substance 5, Ketoconazole], the “primary mode of cell death” value [1] was “Apoptosis can be considered primary mode of cell death at the lower concentration range with necrosis taking place later at higher concentrations”, the “Early Apoptosis [A-V*/PI*]” value ([1]; 60 μM, 5 hrs) was 26.5 and the “Necrosis/ Late Apoptosis [A-V*/PI*]” value ([1]; 60 μM, 5 hrs) was 1.4. For the same compound, the “Normal [A-V*/PI]” value ([1]; 60 μM, 5 hrs) was 72.1, the “Early Apoptosis [A-V*/PI*]” value ([1]; 60 μM, 24 hrs) was 19.5 and the “Necrosis/ Late Apoptosis [A-V*/PI*]” value ([1]; 60 μM, 24 hrs) was 2.6. The “Normal [A-V*/PI]” value ([1]; 60 μM, 24 hrs) was 77.9, the “Early Apoptosis [A-V*/PI*]” value ([1]; 60 μM, 48 hrs) was 9.1 and the “Necrosis/ Late Apoptosis [A-V*/PI*]” value ([1]; 60 μM, 48 hrs) was 3.8. The “Normal [A-V*/PI]” value ([1]; 60 μM, 48 hrs) was 87.1, the “Early Apoptosis [A-V*/PI*]” value ([1]; 80 μM, 5 hrs) was 34 and the “Necrosis/ Late Apoptosis [A-V*/PI*]” value ([1]; 80 μM, 5 hrs) was 2.2. For the same compound, the “Normal [A-V*/PI]” value ([1]; 80 μM, 5 hrs) was 63.8, the “Early Apoptosis [A-V*/PI*]” value ([1]; 80 μM, 24 hrs) was 22.7 and the “Necrosis/ Late Apoptosis [A-V*/PI*]” value ([1]; 80 μM, 24 hrs) was 17.9. For the same compound, the “Normal [A-V*/PI]” value ([1]; 80 μM, 24 hrs) was 59.4, the “Early Apoptosis [A-V*/PI*]” value ([1]; 80 μM, 48 hrs) was 18.5 and the “Necrosis/ Late Apoptosis [A-V*/PI*]” value ([1]; 80 μM, 48 hrs) was 44.9. For the same compound, the “Normal [A-V*/PI]” value ([1]; 80 μM, 48 hrs) was 36.6, the “Early Apoptosis [A-V*/PI*]” value ([1]; 100 μM, 5 hrs) was 23.6 and the “Necrosis/ Late Apoptosis [A-V*/PI*]” value ([1]; 100 μM, 5 hrs) was 3.1. The “Normal [A-V*/PI]” value ([1]; 100 μM, 5 hrs) was 73.3, the “Early Apoptosis [A-V*/PI*]” value ([1]; 100 μM, 24 hrs) was 16.9 and the “Necrosis/ Late Apoptosis [A-V*/PI*]” value ([1]; 100 μM, 24 hrs) was 82.6. The “Normal [A-V*/PI]” value ([1]; 100 μM, 24 hrs) was 0.5, the “Early Apoptosis [A-V*/PI*]” value ([1]; 100 μM, 48 hrs) was 36.9 and the “Necrosis/ Late Apoptosis [A-V*/PI*]” value ([1]; 100 μM, 48 hrs) was 52.5. For the same compound, the “Normal [A-V*/PI]” value ([1]; 100 μM, 48 hrs) was 0.5, the “apoptosis/necrosis induction in human adipocytes (in words)” value ([1]; 5, 24, 48 hrs, concentrations as in Table 4) was “caused apoptosis after 5 hrs at 60, 80, and 100 μM increasing over time” and the “precipitation in assay media” value [2] was “generation of insoluble precipitates at higher concentrations”. For the same compound, the “Rel. max. LDH release [%] 48 hrs” value [3] was 92.2% and the IC50 [4] was 78 µM.
